# Tests used:
# [1] = tested on: dietary calcium absorption; experiment: Dietary calcium absorption accelerating effect, blood calcium level after oral calcium carbonate with test substance (Example 1); type: in vivo; details: male ICR mice, oral 5 mmol/kg calcium carbonate alone or with test substance (1.25-10.0 mmol/kg), up to 4 hours after administration
# From the text: For the experiment, 11-weeks old male ICR mice were used after overnight fasting. During the test period, the mice were given deionized water only. […] The doses of L-arabonic acid administered in combination were 1.25 mmol/kg (Group II), 2.5 mmol/kg (Group III), 5.0 mmol/kg (Group IV), and 10.0 mmol/kg (Group V), and the doses of D-gluconic acid were 2.5 mmol/kg (Group VI), 5.0 mmol/kg (Group VII), and 10.0 mmol/kg (Group VIII). […] The blood calcium level was quantified by a chelate colorimetric method (ortho-cresolphthalein complexone (OCPC) method). The obtained data were analyzed by a paired t-test, and a risk ratio of 5% or less was considered as significant difference.
# [2] = Neutralization curve on dropwise addition of 0.05 N sodium hydroxide, buffering capacity (Example 9); type: physicochemical; details: 50 mL of 0.4% aqueous solution, 0.05 N sodium hydroxide added
# Method: A sodium hydroxide solution at a concentration of 0.05 N was added to 50 mL of a 0.4% aqueous solution of the preparation of Example 9, and the changes in pH were obtained as shown in FIG. 3. […] In addition, 0.2% aqueous solutions of the preparation of Example 9, Comparative Example 1 and Comparative Example 2 were tasted. The 0.2% aqueous solution of the preparation of […] (pH 4.95), having the lowest pH among three, had the closest taste to water, no flavor, and thus it was indistinguishable from water. The preparations of Comparative Example 1 (pH 5.60) and Comparative Example 2 (pH 5.02) had clearly bitter tastes, even in small amount.
# In addition, a sodium hydroxide solution at a concentration of 0.05 N was added to 50 mL of a 0.4% aqueous solution of L-arabono-γ-lactone and 50 mL of a 0.4% aqueous solution of D-glucono-δ-lactone, respectively, and the changes in pH were obtained as shown in FIG. 2.
# [3] = tested on: experimental osteoporosis induced by calcium-deficient diet; experiment: Experimental osteoporosis induced by calcium-deficient diet (Example 7); type: in vivo, mice; details: for absorption rate of calcium in the digestive tract, fourth week / absorption rate of calcium in the digestive tract, second week: calcium-deficient diet mice; for Femur Ash content / Femur Ca content / Femur P content / Femur Weight / Tibia Ash content / Tibia Ca content / Tibia P content / Tibia Weight: 4 weeks
# Method: (§1) Six-week old female ICR mice were divided into five groups (Groups I to V, 10 animals in each group), and fed calcium-deficient feed (calcium carbonate-free AIN 93M, Oriental Yeast Co., Ltd.) for 4 weeks to induce osteoporosis condition. Calcium L-arabonate was dissolved in water and orally administered daily in a dose of 1.25 mmol/kg (Group II) or 2.5 mmol/kg (Group III). The control group for pathological condition (Group I) was administered with water in the same manner. As a comparative group, a group administered with calcium D-gluconate (dose 2.5 mmol/kg (Group IV)) was provided. A normal control group (Group V) was separately provided and was given the normal feed (AIN 93M, Oriental Yeast Co., Ltd.). After administering the test substance on the second week and fourth week of initiation of the test, the animals were transferred to a metabolic cage, and feces were collected for 24 hours. The amount of calcium and phosphorus excreted in the feces were measured, and the absorption rates of ingested calcium and phosphorous in the digestive tract were determined. After completion of the test period, the animals of the respective groups were sacrificed to remove both femurs and tibiae. The femurs and tibiae were removed muscles etc., then immersed in 70% ethanol overnight, and dried at 60° C. for 24 hours to be used as samples for analysis. The measurement items were dry weight, ash content, calcium content, and phosphorus content. The ash content was measured by an ashing method at 550° C. for 18 hours, the calcium content was measured by an OCPC method (Calcium C-Test Wako, Wako Pure Chemical Industries, Ltd.), and the phosphorus content was measured by a p-methylaminophenol reduction method (Phospho C-Test Wako, Wako Pure Chemical Industries, Ltd.). The obtained data were analyzed by ANOVA and the Dunnett's method, and a risk ratio of 5% or less was considered as significant difference.
# [4] = tested on: mice; experiment: Single oral administration safety test, LD50; type: in vivo
# From the text: As a result of a single oral test using mice, it was confirmed that the LD50 value of L-arabonic acid was about 10 g/kg, and thus L-arabonic acid was a material having high safety.
# While it was discovered in Example 5 that the calcium moiety of calcium L-arabonate used in the invention was extremely readily-absorbable, it was shown in Example 6 that the L-arabonic acid moiety was extremely poorly absorbed in the digestive tract.
# [5] = Kinetics of calcium L-arabonate in the digestive tract of rat (Example 6); type: in vivo
# Method: For the experiment, 9 to 12-weeks old male Wistar rats were used after overnight fasting. After orally administering 2.5 mmol/kg of calcium L-arabonate, the animals were entered into a metabolic cage, and were sacrificed after 2 hours, after 6 hours, and after 24 hours, to remove the digestive tracts. The contents in each site of the digestive tract were recovered, respectively, and the amount of unaltered L-arabonic acid was quantified by the HPLC method. During the test period, the animals were given deionized water only.
# [6] = Blood calcium level after administration of calcium L-arabonate (Example 5); type: in vivo; details: male ICR mice, oral calcium L-arabonate 1.25, 2.5, 5.0 mmol/kg or calcium carbonate 5 mmol/kg, up to 4 hours
# Method: For the experiment, 11-weeks old male ICR mice were used after overnight fasting. During the test period, the mice were given deionized water only. The mice were divided into four groups (Groups I to IV, 5 animals in each group), and the test substance was orally administered as a solution in deionized water. […] The blood calcium level was quantified by a chelating calorimetric method (ortho-cresolphthalein complexone (OCPC) method). The obtained data were analyzed by a paired t-test, and a risk ratio of 5% or less was considered as significant difference.
# [7] = tested on: experimental osteoporosis induced by combination of ovary excision and calcium-deficient diet; experiment: Experimental osteoporosis due to combination of ovary excision and calcium-deficient diet (Example 8); type: in vivo, mice; details: for absorption rate of calcium in the digestive tract, fourth week / absorption rate of calcium in the digestive tract, second week: ovary-excised mice on calcium-deficient diet; for Femur Ash content / Femur Ca content / Femur P content / Femur Weight / Tibia Ash content / Tibia Ca content / Tibia P content / Tibia Weight: 4 weeks
# Method: as §1
# Six-weeks old female ICR mice excised their ovaries were divided into 5 groups (Groups I to V, 10 animals in each group), and fed calcium-deficient feed (calcium carbonate-free AIN 93M, Oriental Yeast Co., Ltd.) for 4 weeks to induce osteoporosis condition. Calcium L-arabonate was dissolved in water, and orally administered daily in a dose of 1.25 mmol/kg (Group II) or 2.5 mmol/kg (Group III). The control group for pathological condition (Group I) was administered with water in the same manner. As a comparative group, a group administered with calcium D-gluconate (dose 2.5 mmol/kg (Group IV)) was provided. Also, a group excised ovaries but given with normal feed (AIN 93M, Oriental Yeast Co., Ltd.) (Group V) was separately provided. The measurement of the absorption rate of calcium in the digestive tract, and the analysis of femur and tibia were performed in the same manner as in Example 7.
# [8] = 1.25 and 2.5 mmol/kg, versus pathological control and calcium D-gluconate group
structure (smiles),measurement,setting,value
O=C1O[C@@H](CO)[C@H](O)[C@H]1O [L-arabono-γ-lactone],change in blood calcium level,[1],same effects as those of L-arabonic acid
same,buffering capacity,[2],milder than that of D-glucono-δ-lactone
O=C([O-])[C@@H](O)[C@H](O)[C@H](O)CO.O=C([O-])[C@@H](O)[C@H](O)[C@H](O)CO.[Ca+2] [calcium L-arabonate],absorption rates of phosphorus in the digestive tract,"[3]; 1.25 and 2.5 mmol/kg, compared with calcium D-gluconate group",tendency for higher absorption rates of phosphorus compared with the comparative group
same,"amelioration of weight, ash, calcium and phosphorus content of femur and tibia",[3]; [8],ameliorated in all of the above indices in dose-dependent manner
same,"absorption rate of calcium in the digestive tract, fourth week",[3]; dose 1.25 mmol/kg oral daily,99.3%
same,"absorption rate of calcium in the digestive tract, second week",[3]; dose 1.25 mmol/kg oral daily,93.1%
same,"absorption rate of calcium in the digestive tract, fourth week",[3]; dose 2.5 mmol/kg oral daily,80.1%
same,"absorption rate of calcium in the digestive tract, second week",[3]; dose 2.5 mmol/kg oral daily,87.9%
same,Femur Ash content,[3]; dose 1.25 mmol/kg oral daily,24 ± 0.7 mg
same,Femur Ca content,[3]; dose 1.25 mmol/kg oral daily,8.8 ± 0.22 mg
same,Femur P content,[3]; dose 1.25 mmol/kg oral daily,4.5 ± 0.09 mg
same,Femur Weight,[3]; dose 1.25 mmol/kg oral daily,44 ± 1.0 mg
same,Femur Ash content,[3]; dose 2.5 mmol/kg oral daily,27 ± 0.5 mg
same,Femur Ca content,[3]; dose 2.5 mmol/kg oral daily,9.5 ± 0.13 mg
same,Femur P content,[3]; dose 2.5 mmol/kg oral daily,5.1 ± 0.05 mg
same,Femur Weight,[3]; dose 2.5 mmol/kg oral daily,49 ± 1.1 mg
same,Tibia Ash content,[3]; dose 1.25 mmol/kg oral daily,23 ± 0.8 mg
same,Tibia Ca content,[3]; dose 1.25 mmol/kg oral daily,8.1 ± 0.28 mg
same,Tibia P content,[3]; dose 1.25 mmol/kg oral daily,4.2 ± 0.14 mg
same,Tibia Weight,[3]; dose 1.25 mmol/kg oral daily,43 ± 1.6 mg
same,Tibia Ash content,[3]; dose 2.5 mmol/kg oral daily,24 ± 0.5 mg
same,Tibia Ca content,[3]; dose 2.5 mmol/kg oral daily,9.1 ± 0.22 mg
same,Tibia P content,[3]; dose 2.5 mmol/kg oral daily,4.6 ± 0.05 mg
same,Tibia Weight,[3]; dose 2.5 mmol/kg oral daily,46 ± 1.2 mg
same,LD50,[4],≥ 7400 mg/kg
same,share of the total amount of administration remained in the cecum and the colon,"[5]; after 24 hours, oral 2.5 mmol/kg calcium L-arabonate",About 23%
same,absorption of the arabonic acid moiety in the small intestine,[5]; after oral administration of the calcium salt,hardly absorbed in the small intestine
same,"Residual ratio of L-arabonic acid after administration, Cecum, After 2 hrs","[5]; oral 2.5 mmol/kg calcium L-arabonate, cecum, 2 hrs",34.4 ± 5.81%
same,"Residual ratio of L-arabonic acid after administration, Cecum, After 6 hrs","[5]; oral 2.5 mmol/kg calcium L-arabonate, cecum, 6 hrs",57.8 ± 2.27%
same,"Residual ratio of L-arabonic acid after administration, Cecum, After 24 hrs","[5]; oral 2.5 mmol/kg calcium L-arabonate, cecum, 24 hrs",19.0 ± 15.67%
same,"Residual ratio of L-arabonic acid after administration, Colon, After 2 hrs","[5]; oral 2.5 mmol/kg calcium L-arabonate, colon, 2 hrs",1.9 ± 0.76%
same,"Residual ratio of L-arabonic acid after administration, Colon, After 6 hrs","[5]; oral 2.5 mmol/kg calcium L-arabonate, colon, 6 hrs",3.9 ± 1.30%
same,"Residual ratio of L-arabonic acid after administration, Colon, After 24 hrs","[5]; oral 2.5 mmol/kg calcium L-arabonate, colon, 24 hrs",2.5 ± 0.95%
same,"Residual ratio of L-arabonic acid after administration, Small intestine, After 2 hrs","[5]; oral 2.5 mmol/kg calcium L-arabonate, small intestine, 2 hrs",22.6 ± 4.85%
same,"Residual ratio of L-arabonic acid after administration, Small intestine, After 6 hrs","[5]; oral 2.5 mmol/kg calcium L-arabonate, small intestine, 6 hrs",2.2 ± 1.08%
same,"Residual ratio of L-arabonic acid after administration, Small intestine, After 24 hrs","[5]; oral 2.5 mmol/kg calcium L-arabonate, small intestine, 24 hrs",0.2 ± 0.08%
same,"Residual ratio of L-arabonic acid after administration, Stomach, After 2 hrs","[5]; oral 2.5 mmol/kg calcium L-arabonate, stomach, 2 hrs",3.30 ± 1.34%
same,"Residual ratio of L-arabonic acid after administration, Stomach, After 6 hrs","[5]; oral 2.5 mmol/kg calcium L-arabonate, stomach, 6 hrs",0.1 ± 0.06%
same,"Residual ratio of L-arabonic acid after administration, Stomach, After 24 hrs","[5]; oral 2.5 mmol/kg calcium L-arabonate, stomach, 24 hrs",0%
same,change in blood calcium level,[6],dose-dependent increases in the blood calcium level
same,"amelioration of weight, ash, calcium and phosphorus content of femur and tibia",[7]; [8],ameliorated in all of the indices in dose-dependent manner
same,"absorption rate of calcium in the digestive tract, fourth week",[7]; dose 1.25 mmol/kg oral daily,81.8%
same,"absorption rate of calcium in the digestive tract, second week",[7]; dose 1.25 mmol/kg oral daily,85.7%
same,"absorption rate of calcium in the digestive tract, fourth week",[7]; dose 2.5 mmol/kg oral daily,57.7%
same,"absorption rate of calcium in the digestive tract, second week",[7]; dose 2.5 mmol/kg oral daily,74.4%
same,Femur Ash content,[7]; dose 1.25 mmol/kg oral daily,25 ± 0.4 mg
same,Femur Ca content,[7]; dose 1.25 mmol/kg oral daily,8.8 ± 0.18 mg
same,Femur P content,[7]; dose 1.25 mmol/kg oral daily,4.7 ± 0.07 mg
same,Femur Weight,[7]; dose 1.25 mmol/kg oral daily,45 ± 0.9 mg
same,Femur Ash content,[7]; dose 2.5 mmol/kg oral daily,28 ± 0.8 mg
same,Femur Ca content,[7]; dose 2.5 mmol/kg oral daily,10.2 ± 0.24 mg
same,Femur P content,[7]; dose 2.5 mmol/kg oral daily,5.3 ± 0.11 mg
same,Femur Weight,[7]; dose 2.5 mmol/kg oral daily,50 ± 0.9 mg
same,Tibia Ash content,[7]; dose 1.25 mmol/kg oral daily,22 ± 0.3 mg
same,Tibia Ca content,[7]; dose 1.25 mmol/kg oral daily,8.2 ± 0.15 mg
same,Tibia P content,[7]; dose 1.25 mmol/kg oral daily,4.2 ± 0.05 mg
same,Tibia Weight,[7]; dose 1.25 mmol/kg oral daily,42 ± 0.8 mg
same,Tibia Ash content,[7]; dose 2.5 mmol/kg oral daily,25 ± 0.5 mg
same,Tibia Ca content,[7]; dose 2.5 mmol/kg oral daily,9.3 ± 0.23 mg
same,Tibia P content,[7]; dose 2.5 mmol/kg oral daily,4.7 ± 0.11 mg
same,Tibia Weight,[7]; dose 2.5 mmol/kg oral daily,46 ± 1.0 mg
